Assay results published in ChEMBL document CHEMBL1201861, “Genomics of Drug Sensitity in Cancer screening data, Wellcome Trust Sanger Institute”.

Assays:
Assay in all cases: cells
TE-6 = type: functional, cell-based, Homo sapiens; conditions: Homo sapiens, TE-6;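 further: growth inhibition of TE-6 cells, read out with a cell viability assay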
Description: SANGER: Inhibition of human TE-6 cell growth in a cell viability assay.

HuP-T3 = type: functional, cell-based, Homo sapiens; conditions: Homo sapiens, HuP-T3;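 further: HuP-T3 cell growth inhibition, read out with a cell viability assay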
Description: SANGER: Inhibition of human HuP-T3 cell growth in a cell viability assay.

ChaGo-K-1 = type: functional, cell-based; conditions: Homo sapiens;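 further: growth inhibition of ChaGo-K-1 cells, read out with a cell viability assay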
Description: SANGER: Inhibition of human ChaGo-K-1 cell growth in a cell viability assay.

MZ7-mel = type: functional, cell-based, Homo sapiens; conditions: Homo sapiens, MZ7-mel;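 further: growth inhibition of human MZ7-mel cells, measured by a cell viability assay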
Description: SANGER: Inhibition of human MZ7-mel cell growth in a cell viability assay.

MKN-7 = type: functional, cell-based, Homo sapiens; conditions: Homo sapiens, MKN-7;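 further: growth inhibition of MKN-7 cells, read out with a cell viability assay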
Description: SANGER: Inhibition of human MKN7 cell growth in a cell viability assay.

TYK-nu = type: functional, cell-based, Homo sapiens; conditions: Homo sapiens, TYK-nu;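 further: growth inhibition of human TYK-nu cells, read out by a cell viability assay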
Description: SANGER: Inhibition of human TYK-nu cell growth in a cell viability assay.

HCC70 = type: functional, cell-based, Homo sapiens; conditions: Homo sapiens, HCC70;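 further: cell viability assay measuring how strongly the compound suppresses proliferation of HCC70 cells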
Description: SANGER: Inhibition of human HCC70 cell growth in a cell viability assay.

LC-2-ad = type: functional, cell-based, Homo sapiens; conditions: Homo sapiens, LC-2-ad;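 further: growth inhibition of human LC-2-ad cells, read out with a cell viability assay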
Description: SANGER: Inhibition of human LC-2-ad cell growth in a cell viability assay.

LS-411N = type: functional, cell-based, Homo sapiens; conditions: Homo sapiens, LS-411N
NCI-H1623 = type: functional, cell-based, Homo sapiens; conditions: Homo sapiens, NCI-H1623;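 further: cell viability assay used as the read-out for growth inhibition of NCI-H1623 cells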
Description: SANGER: Inhibition of human NCI-H1623 cell growth in a cell viability assay.

HuP-T4 = type: functional, cell-based, Homo sapiens; conditions: Homo sapiens, HuP-T4;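 further: cell viability assay measuring how much HuP-T4 cell growth is inhibited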
Description: SANGER: Inhibition of human HuP-T4 cell growth in a cell viability assay.

SW-620 = type: functional, cell-based, Homo sapiens; conditions: Homo sapiens, SW-620;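 further: growth inhibition of human SW-620 cells, measured by a cell viability assay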
Description: SANGER: Inhibition of human SW620 cell growth in a cell viability assay.

LK-2 = type: functional, cell-based, Homo sapiens; conditions: Homo sapiens, LK-2;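 further: growth inhibition of LK-2 cells, read out with a viability assay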
Description: SANGER: Inhibition of human LK-2 cell growth in a cell viability assay.

DOHH-2 = type: functional, cell-based; conditions: Homo sapiens;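 further: growth inhibition of human DOHH-2 cells, read out with a cell viability assay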
Description: SANGER: Inhibition of human DOHH-2 cell growth in a cell viability assay.

PFSK-1 = type: functional, cell-based, Homo sapiens; conditions: Homo sapiens, PFSK-1;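 further: cell viability assay measuring how strongly compounds suppress growth of human PFSK-1 cells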
Description: SANGER: Inhibition of human PFSK-1 cell growth in a cell viability assay.

8-MG-BA = type: functional, cell-based, Homo sapiens; conditions: Homo sapiens, 8-MG-BA;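 further: growth inhibition of 8-MG-BA cells, read out with a cell viability assay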
Description: SANGER: Inhibition of human 8-MG-BA cell growth in a cell viability assay.

DU-4475 = type: functional, cell-based; conditions: Homo sapiens
Description: SANGER: Inhibition of human DU-4475 cell growth in a cell viability assay.

SCC-15 = type: functional, cell-based, Homo sapiens; conditions: Homo sapiens, SCC-15;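 further: growth inhibition of SCC-15 cells, read out with a cell viability assay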
Description: SANGER: Inhibition of human SCC-15 cell growth in a cell viability assay.

NCI-H1648 = type: functional, cell-based, Homo sapiens; conditions: Homo sapiens, NCI-H1648;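 further: cell viability assay measuring inhibition of NCI-H1648 cell growth, from the Sanger screening data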
Description: SANGER: Inhibition of human NCI-H1648 cell growth in a cell viability assay.

ALL-PO = type: functional, cell-based; conditions: Homo sapiens;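 further: growth inhibition of ALL-PO cells, read out by a cell viability assay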
Description: SANGER: Inhibition of human ALL-PO cell growth in a cell viability assay.

A-375 = type: functional, cell-based, Homo sapiens; conditions: Homo sapiens, A-375;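 further: growth inhibition of A375 cells, read out with a cell viability assay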
Description: SANGER: Inhibition of human A375 cell growth in a cell viability assay.

J82 = type: functional, cell-based; conditions: Homo sapiens;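 further: growth inhibition of J82 cells, read out with a cell viability assay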
Description: SANGER: Inhibition of human J82 cell growth in a cell viability assay.

NCI-H1693 = type: functional, cell-based, Homo sapiens; conditions: Homo sapiens, NCI-H1693;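 further: growth inhibition of the human cell line, read out with a cell viability assay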
Description: SANGER: Inhibition of human NCI-H1693 cell growth in a cell viability assay.

TE-8 = type: functional, cell-based, Homo sapiens; conditions: Homo sapiens, TE-8;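 further: growth inhibition of TE-8 cells, measured with a cell viability readout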
Description: SANGER: Inhibition of human TE-8 cell growth in a cell viability assay.

A388 = type: functional, cell-based, Homo sapiens; conditions: Homo sapiens, A388;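 further: growth inhibition of human A388 cells, read out with a cell viability assay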
Description: SANGER: Inhibition of human A388 cell growth in a cell viability assay.

NB5 = type: functional, cell-based, Homo sapiens; conditions: Homo sapiens, NB5;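 further: growth inhibition of NB5 cells, read out as cell viability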
Description: SANGER: Inhibition of human NB5 cell growth in a cell viability assay.

VMRC-RCZ = type: functional, cell-based; conditions: Homo sapiens;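 further: growth inhibition measured with a cell viability assay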
Description: SANGER: Inhibition of human VMRC-RCZ cell growth in a cell viability assay.

RCM-1 = type: functional, cell-based, Homo sapiens; conditions: Homo sapiens, RCM-1;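 further: growth inhibition of the RCM-1 line, determined with a cell viability readout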
Description: SANGER: Inhibition of human RCM-1 cell growth in a cell viability assay.

ES6 = type: functional, cell-based, Homo sapiens; conditions: Homo sapiens, ES6;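 further: growth inhibition of human ES6 cells, read out with a cell viability assay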
Description: SANGER: Inhibition of human ES6 cell growth in a cell viability assay.

NTERA-2-cl-D1 = type: functional, cell-based, Homo sapiens; conditions: Homo sapiens, NTERA-2-cl-D1;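 further: inhibition of cell growth, measured with a cell viability assay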
Description: SANGER: Inhibition of human NTERA-S-cl-D1 cell growth in a cell viability assay.

SW1990 = type: functional, cell-based, Homo sapiens; conditions: Homo sapiens, SW1990;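 further: cell growth inhibition determined with a viability assay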
Description: SANGER: Inhibition of human SW1990 cell growth in a cell viability assay.

SW1417 = type: functional, cell-based, Homo sapiens; conditions: Homo sapiens, SW1417;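 further: growth inhibition of human SW1417 cells, read out with a cell viability assay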
Description: SANGER: Inhibition of human SW1417 cell growth in a cell viability assay.

EM-2 = type: functional, cell-based; conditions: Homo sapiens;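 further: growth inhibition of EM-2 cells, read out with a cell viability assay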
Description: SANGER: Inhibition of human EM-2 cell growth in a cell viability assay.

MHH-PREB-1 = type: functional, cell-based; conditions: Homo sapiens;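 further: cell viability assay measuring inhibition of proliferation of human MHH-PREB-1 cells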
Description: SANGER: Inhibition of human MHH-PREB-1 cell growth in a cell viability assay.

KY821 = type: functional, cell-based; conditions: Homo sapiens;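 further: growth inhibition of human KY821 cells, read out by a cell viability assay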
Description: SANGER: Inhibition of human KY821 cell growth in a cell viability assay.

LOX IMVI = type: functional, cell-based; conditions: Homo sapiens
Description: SANGER: Inhibition of human LOXIMVI cell growth in a cell viability assay.

BV-173 = type: functional, cell-based; conditions: Homo sapiens
Description: SANGER: Inhibition of human BV-173 cell growth in a cell viability assay.

AGS = type: functional, cell-based, Homo sapiens; conditions: Homo sapiens, AGS;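 further: growth inhibition of AGS cells, determined with a cell viability assay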
Description: SANGER: Inhibition of human AGS cell growth in a cell viability assay.

EW-13 = type: functional, cell-based; conditions: Homo sapiens;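 further: growth inhibition of EW-13 cells, read out with a cell viability assay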
Description: SANGER: Inhibition of human EW-13 cell growth in a cell viability assay.

SW 954 = type: functional, cell-based, Homo sapiens; conditions: Homo sapiens, SW 954;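 further: growth inhibition of SW954 human cancer cells, read out as cell viability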
Description: SANGER: Inhibition of human SW954 cell growth in a cell viability assay.

MZ2-MEL = type: functional, cell-based, Homo sapiens; conditions: Homo sapiens, MZ2-MEL;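 further: growth inhibition of MZ2-MEL cells read out with a cell viability assay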
Description: SANGER: Inhibition of human MZ2-MEL cell growth in a cell viability assay.

ONS-76 = type: functional, cell-based, Homo sapiens; conditions: Homo sapiens, ONS-76;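 further: growth inhibition of human ONS-76 cells, read out with a cell viability assay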
Description: SANGER: Inhibition of human ONS-76 cell growth in a cell viability assay.

MDA-MB-361 = type: functional, cell-based, Homo sapiens; conditions: Homo sapiens, MDA-MB-361
HN = type: functional, cell-based, Homo sapiens; conditions: Homo sapiens, HN
Description: SANGER: Inhibition of human HN cell growth in a cell viability assay.

CGTH-W-1 = type: functional, cell-based, Homo sapiens; conditions: Homo sapiens, CGTH-W-1;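 further: growth inhibition of human CGTH-W-1 cells measured by cell viability assay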
Description: SANGER: Inhibition of human CGTH-W-1 cell growth in a cell viability assay.

COLO-668 = type: functional, cell-based, Homo sapiens; conditions: Homo sapiens, COLO-668
Description: SANGER: Inhibition of human COLO-668 cell growth in a cell viability assay.

DMS-79 = type: functional, cell-based; conditions: Homo sapiens;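 further: growth inhibition measured with a cell viability assay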
Description: SANGER: Inhibition of human DMS-79 cell growth in a cell viability assay.

HGC-27 = type: functional, cell-based, Homo sapiens; conditions: Homo sapiens, HGC-27;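 further: growth inhibition of human HGC-27 cells, read out in a cell viability assay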
Description: SANGER: Inhibition of human HGC-27 cell growth in a cell viability assay.

JVM-2 = type: functional, cell-based; conditions: Homo sapiens;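 further: growth inhibition of JVM-2 cells determined by a cell viability assay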
Description: SANGER: Inhibition of human JVM-2 cell growth in a cell viability assay.

CAMA-1 = type: functional, cell-based, Homo sapiens; conditions: Homo sapiens, CAMA-1;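 further: growth inhibition of CAMA-1 cells, read out with a cell viability assay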
Description: SANGER: Inhibition of human CAMA-1 cell growth in a cell viability assay.

HL-60 = type: functional, cell-based; conditions: Homo sapiens;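 further: growth inhibition of human HL-60 cells, read out with a cell viability assay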
Description: SANGER: Inhibition of human HL-60 cell growth in a cell viability assay.

ACHN = type: functional, cell-based, Homo sapiens; conditions: Homo sapiens, ACHN;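 further: cell viability read-out used to gauge how strongly growth of human ACHN cells is suppressed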
Description: SANGER: Inhibition of human ACHN cell growth in a cell viability assay.

HT-1376 = type: functional, cell-based, Homo sapiens; conditions: Homo sapiens, HT-1376
Description: SANGER: Inhibition of human HT-1376 cell growth in a cell viability assay.

Cc1cnc(-c2cnc(NCCNc3ccc(C#N)cn3)nc2-c2ccc(Cl)cc2Cl)[nH]1 [LADUVIGLUSIB]
IC50 (TE-6): > 2560 nM | IC50 (HuP-T3): > 2560 nM | IC50 (ChaGo-K-1): > 2560 nM | IC50 (MZ7-mel): > 2560 nM | IC50 (MKN-7): > 2560 nM | IC50 (TYK-nu): 1080 nM | IC50 (HCC70): > 2560 nM | IC50 (LC-2-ad): > 2560 nM | IC50 (LS-411N): > 2560 nM | IC50 (NCI-H1623): > 2560 nM | IC50 (HuP-T4): > 2560 nM | IC50 (SW-620): > 2560 nM | IC50 (LK-2): > 2560 nM | IC50 (DOHH-2): > 2560 nM | IC50 (PFSK-1): > 2560 nM | IC50 (8-MG-BA): > 2560 nM | IC50 (DU-4475): > 2560 nM | IC50 (SCC-15): > 2560 nM | IC50 (NCI-H1648): > 2560 nM | IC50 (ALL-PO): > 2560 nM | IC50 (A-375): > 2560 nM | IC50 (J82): > 2560 nM | IC50 (NCI-H1693): > 2560 nM | IC50 (TE-8): > 2560 nM | IC50 (A388): > 2560 nM | IC50 (NB5): > 2560 nM | IC50 (VMRC-RCZ): > 2560 nM | IC50 (RCM-1): > 2560 nM | IC50 (ES6): > 2560 nM | IC50 (NTERA-2-cl-D1): > 2560 nM | IC50 (SW1990): > 2560 nM | IC50 (SW1417): > 2560 nM | IC50 (EM-2): > 2560 nM | IC50 (MHH-PREB-1): > 2560 nM | IC50 (KY821): > 2560 nM | IC50 (LOX IMVI): 588 nM | IC50 (BV-173): > 2560 nM | IC50 (AGS): > 2560 nM | IC50 (EW-13): > 2560 nM | IC50 (SW 954): > 2560 nM | IC50 (MZ2-MEL): > 2560 nM | IC50 (ONS-76): > 2560 nM | IC50 (MDA-MB-361): > 2560 nM | IC50 (HN): > 2560 nM | IC50 (CGTH-W-1): > 2560 nM | IC50 (COLO-668): > 2560 nM | IC50 (DMS-79): > 2560 nM | IC50 (HGC-27): > 2560 nM | IC50 (JVM-2): > 2560 nM | IC50 (CAMA-1): > 2560 nM | IC50 (HL-60): > 2560 nM | IC50 (ACHN): > 2560 nM | IC50 (HT-1376): > 2560 nM

COc1cc([C@@H]2c3cc4c(cc3[C@@H](O[C@@H]3O[C@@H]5CO[C@@H](C)O[C@H]5[C@H](O)[C@H]3O)[C@H]3COC(=O)[C@H]23)OCO4)cc(OC)c1O [ETOPOSIDE]
IC50 (TE-6): > 16000 nM | IC50 (HuP-T3): > 16000 nM | IC50 (ChaGo-K-1): 3790 nM | IC50 (MZ7-mel): 4300 nM | IC50 (MKN-7): > 16000 nM | IC50 (TYK-nu): 2410 nM | IC50 (HCC70): > 16000 nM | IC50 (LC-2-ad): 2060 nM | IC50 (LS-411N): 925 nM | IC50 (NCI-H1623): 14000 nM | IC50 (HuP-T4): 1450 nM | IC50 (SW-620): 384 nM | IC50 (LK-2): 1410 nM | IC50 (DOHH-2): 347 nM | IC50 (PFSK-1): > 16000 nM | IC50 (8-MG-BA): 46.9 nM | IC50 (DU-4475): 96.2 nM | IC50 (SCC-15): 13100 nM | IC50 (NCI-H1648): > 16000 nM | IC50 (ALL-PO): 690 nM | IC50 (A-375): 631 nM | IC50 (J82): 3340 nM | IC50 (NCI-H1693): > 16000 nM | IC50 (TE-8): 8750 nM | IC50 (A388): 3330 nM | IC50 (NB5): > 16000 nM | IC50 (VMRC-RCZ): 1970 nM | IC50 (RCM-1): > 16000 nM | IC50 (ES6): > 16000 nM | IC50 (NTERA-2-cl-D1): 25 nM | IC50 (SW1990): 5640 nM | IC50 (SW1417): > 16000 nM | IC50 (EM-2): 1580 nM | IC50 (MHH-PREB-1): > 16000 nM | IC50 (KY821): > 16000 nM | IC50 (LOX IMVI): > 16000 nM | IC50 (BV-173): 5050 nM | IC50 (AGS): 318 nM | IC50 (EW-13): 88.9 nM | IC50 (SW 954): 1960 nM | IC50 (MZ2-MEL): 2180 nM | IC50 (ONS-76): 754 nM | IC50 (MDA-MB-361): > 16000 nM | IC50 (HN): > 16000 nM | IC50 (CGTH-W-1): 57.4 nM | IC50 (COLO-668): 1660 nM | IC50 (DMS-79): > 16000 nM | IC50 (HGC-27): 102 nM | IC50 (JVM-2): > 16000 nM | IC50 (CAMA-1): 13000 nM | IC50 (HL-60): 2290 nM | IC50 (ACHN): 839 nM | IC50 (HT-1376): 5820 nM

C[C@]1(O)C[C@@H](c2nc(-c3ccc4ccc(-c5ccccc5)nc4c3)c3c(N)nccn32)C1 [LINSITINIB]
IC50 (TE-6): > 2560 nM | IC50 (HuP-T3): > 2560 nM | IC50 (ChaGo-K-1): > 2560 nM | IC50 (MZ7-mel): > 2560 nM | IC50 (MKN-7): > 2560 nM | IC50 (TYK-nu): > 2560 nM | IC50 (HCC70): > 2560 nM | IC50 (LC-2-ad): 1740 nM | IC50 (LS-411N): > 2560 nM | IC50 (NCI-H1623): > 2560 nM | IC50 (HuP-T4): > 2560 nM | IC50 (SW-620): > 2560 nM | IC50 (LK-2): > 2560 nM | IC50 (DOHH-2): > 2560 nM | IC50 (PFSK-1): > 2560 nM | IC50 (8-MG-BA): > 2560 nM | IC50 (DU-4475): > 2560 nM | IC50 (SCC-15): > 2560 nM | IC50 (NCI-H1648): > 2560 nM | IC50 (ALL-PO): > 2560 nM | IC50 (A-375): 476 nM | IC50 (J82): > 2560 nM | IC50 (NCI-H1693): > 2560 nM | IC50 (TE-8): 1310 nM | IC50 (A388): > 2560 nM | IC50 (NB5): > 2560 nM | IC50 (VMRC-RCZ): > 2560 nM | IC50 (RCM-1): > 2560 nM | IC50 (ES6): 911 nM | IC50 (NTERA-2-cl-D1): > 2560 nM | IC50 (SW1990): > 2560 nM | IC50 (SW1417): > 2560 nM | IC50 (EM-2): > 2560 nM | IC50 (MHH-PREB-1): > 2560 nM | IC50 (KY821): > 2560 nM | IC50 (LOX IMVI): > 2560 nM | IC50 (BV-173): > 2560 nM | IC50 (AGS): > 2560 nM | IC50 (EW-13): > 2560 nM | IC50 (SW 954): > 2560 nM | IC50 (MZ2-MEL): > 2560 nM | IC50 (ONS-76): > 2560 nM | IC50 (MDA-MB-361): > 2560 nM | IC50 (HN): > 2560 nM | IC50 (CGTH-W-1): > 2560 nM | IC50 (COLO-668): 847 nM | IC50 (DMS-79): > 2560 nM | IC50 (HGC-27): > 2560 nM | IC50 (JVM-2): > 2560 nM | IC50 (CAMA-1): > 2560 nM | IC50 (HL-60): 1670 nM | IC50 (ACHN): > 2560 nM | IC50 (HT-1376): > 2560 nM
